Experimental findings from patent publication US7396946B2, “Compound for treatment of external secretion disorders” (Sucampo AG, priority 1999, dated 2008) are described below.

The subject of one series is normal rabbits. Nature of the series: Effect on whole tear secretion of normal rabbits (Schirmer's test, Test Example 1). It is filed as in vivo, Male Japanese albino rabbits (Std:JW/CSK). Particulars: for whole tear secretion: 30 μl/eye single instillation, 8 eyes. Here is the method: Male Japanese albino rabbits (Std:JW/CSK) were used.
(2) Method of Administration
Ophthalmic solution comprising 0.001% of 13,14-dihydro-15-keto-16,16-difluoro-PGE1 as an active ingredient of the present invention was prepared and used as a test composition. As a control, the vehicle of said solution without the active ingredient was used.
Each of the compositions was instilled singly to eight eyes at the amount of 30 μl/eye. After the administration, the time course of the tear secretion change was examined according to the following method.
Before (0 hour) and 0.5, 2, 4, and 6 hours after the instillation, the whole tear secretion was determined.
Under no anesthetization, one edge of the Schirmer's test strip (Showa Yakuhin Kako Co., Ltd., Lot No. 70080) was inserted into the conjunctival sac of the each test animal. One minute after, the strip was removed and the length of the moisted part was read from the scale provided on the strip to determine the amount of whole tear secretion.

The test system of the next series is rats (SD strain). Nature of the series: Exaltation of salivation, salivary weight on paper filter (Test Example 4). Type of series: in vivo, Male rats (SD strain). Conditions: 1.0 mg/kg orally once a day for 10 days. Here is the method:
The effect of the composition of the present invention on salivary secretion was determined. (1) Test Animals Male rats (SD strain) were used. Each of the test and control groups contains 8 animals. (2) Method of Administration 13,14-dihydro-15-keto-16,16-difuloro-PGE1 was used as an active ingredient of the present invention to prepare test solution containing 0.2 mg/ml of the compound. 5 ml/kg of the solution (1.0 mg/kg of the compound) was forcedly administrated orally once a day. For the animals f control group, 5 ml/kg of vehicle without the active ingredient was administrated once a day. The administration was continued for 10 days. (3) Examination The amount of the saliva of the test group and control group was measured one hour after the administration on 10th day. The edge of a paper filter (Schirmer's test strip, Showa Yakuhin Kako Co., Ltd.) was inserted between lower gingiva and mandibula. Three minutes after, the paper filter was removed and the weight of the saliva was calculated by the following formula. weight of saliva=(the weight of paper filter including saliva)−(weight of only paper filter) (4) Result

For `CCCCC(F)(F)C(=O)CCC1C(O)CC(=O)C1CCCCCCC(=O)O` (stereo not drawn) [13,14-dihydro-15-keto-16,16-difluoro-PGE1], the whole tear secretion was found to be 17.0 ± 0.5 mm/min with normal rabbits (0.001% ophthalmic solution, 0.5 hr after); 14.1 ± 0.5 mm/min in the series on normal rabbits (0.001% ophthalmic solution, 2 hr after); 11.7 ± 0.6 mm/min in the series with normal rabbits (0.001% ophthalmic solution, 4 hr after); 10.5 ± 1.0 mm/min with normal rabbits (0.001% ophthalmic solution, 6 hr after); 5.3 ± 0.2 mm/min in the series with normal rabbits (test group 0.001% ophthalmic solution, before the administration (baseline)). Moreover, the “amount of whole tear secretion (result in words)” value in the series on normal rabbits (0.001% ophthalmic solution, versus control group) is “significant increase”. For the same compound, in the series with normal rabbits (after instillation of 0.001% ophthalmic solution, 30 μl/eye), the “stimulating response, such as rubor in the front of the eye” value is “No stimulating response”. For the same compound, the “salivary secretion (result in words)” value in the series on rats (SD strain) (compared with the control group) was “significantly increased”. Further, the “Salivary weight (mean ± S.E.)” value with rats (SD strain) (one hour after the administration on 10th day, paper filter 3 minutes, 8 animals) was 18.1 ± 5.6 mg.
